Literature values, collected in paper PMC4895201 (Journal of natural products, 2009).

Experiments:
[1] = tested on: various solid cell lines
[2] = tested on: breast and prostate xenografts; settings: compared with KF (3)
[3] = tested on: epidermal growth factor receptor (ErbB family); settings: early research

Substance | antitumor activity, in vitro and in vivo [1] | in vivo efficacy against breast and prostate xenografts [2] | blockade of epidermal growth factor receptor (ErbB family) [3]
(4S)- methylhexanoic kahalalide F [isoKF (4)] | significant in vitro and in vivo antitumor activity against various solid cell lines | enhanced efficacy against breast and prostate xenografts | 
kahalalide F [KF (3)] | significant in vitro and in vivo antitumor activity against various solid cell lines |  | blocked the epidermal growth factor receptor (ErbB family)
